≈ marks a conversion by molar mass, not a printed value. Like-named read-outs stand apart in the source and are kept apart here.
Assays:
[1] = female, cynomolgus monkey, in vivo, 5 mg/kg
P. aeruginosa, 32121 = test: antibacterial activity (MIC), standard method of Japanese Society of Chemotherapy; details: Pseudomonas aeruginosa
[2] = male, Crj:CD IGS, rat, in vivo, po, 5 mg/kg
S. epidermidis, 56500 = test: antibacterial activity (MIC), standard method of Japanese Society of Chemotherapy; details: Staphylococcus epidermidis, 56500, S. epidermidis
[3] = tested on: S. pneumoniae, J24 (penicillin-intermediate resistant bacteria); test: as above; details: Streptococcus pneumoniae
hERG K+ channel = hERG K+ channel (Homo sapiens, UniProt Q12809); test: hERG-K^+ channel blocking effect
E. coli NIHJ = test: antibacterial activity (MIC), standard method of Japanese Society of Chemotherapy; details: Escherichia coli
in vivo [4] = details: male, Crj:CD IGS, rat, po, 5 mg/kg
S. marscecens, 10100 = test: antibacterial activity (MIC), standard method of Japanese Society of Chemotherapy
E. faecalis, ATCC 19433 = test: as above; details: Enterococcus faecalis, ATCC19433, E. faecalis
[5] = tested on: Mycobacterium tuberculosis (sensitive bacteria); test: anti-Mycobacterium tuberculosis (sensitive bacteria) activity, MIC; format: cell-based
in vivo [6] = details: female, cynomolgus monkey, po, 5 mg/kg
[7] = tested on: S. aureus, 87037 (LVFX-resistant MRSA); test: antibacterial activity (MIC), standard method of Japanese Society of Chemotherapy; details: Staphylococcus aureus, MRSA, S. aureus, 87037 (LVFX-resistant MRSA)
[8] = tested on: Mycobacterium tuberculosis (quinolone sensitive); test: anti-Mycobacterium tuberculosis (quinolone sensitive) activity, MIC; format: cell-based
P. vulgaris, 08601 = test: antibacterial activity (MIC), standard method of Japanese Society of Chemotherapy; details: Proteus vulgaris, 08601, P. vulgaris
P. aeruginosa, 32104 = test: as above; details: Pseudomonas aeruginosa
S. aureus, 209P = test: as above; details: Staphylococcus aureus
[9] = parameters: species or system guinea pigs (Slc:Hertley); details: guinea pig, in vivo
Method: Guinea pig maximization test (GPMT) which is a widely accepted model for delayed antigenicity was conducted according to the method of Mugnusson et al. (J. invest. Dermatol., 52, 1969) by using a cutaneous sensitization concentration of 1% and a patch sensitization and induction concentration of 10%. At day 1, the animal was sensitized by cutaneously administering the test substance (the quinolone compounds and the control: vehicle, vaseline) (1% solution in physiological saline+FCA emulsion) at the back of the head of the shaved guinea pigs (7 week old male Slc:Hertley). At day 7, lauryl sodium sulfate (SLC) was applied for stimulus (adjuvant treatment), and on the next day, the test substance coated on a wax paper was patched onto the shaved skin to for sealed sensitization, and after 48 hours (at day 10), the waxed paper was removed. The skin reaction was observed upon the removal. On day 22, the test substance (10%) was patched onto the anterior side of the body for induction, and the induction patching was removed after 24 hours. On the next day (at day 24) and the next day (at day 25), the skin reaction was evaluated according to the description of the document as mentioned above. Erythema and edema were scored, and the case with the total score of 2 or higher was evaluated to be positive with the maximum of the score being 7.
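For Serum AUC0-8 h in this document: fasted 7-week-old rats, three per group, tissue sampled up to 8 h post-dose and urine collected over 0–24 h, with conjugates measured after alkaline hydrolysis, concentrations by LC-MS/MS.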
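For Tissue AUC0-8 h, Kidney in this document: fasted 7-week-old rats, three per group, tissue sampled up to 8 h post-dose and urine collected over 0–24 h, with conjugates measured after alkaline hydrolysis, concentrations by LC-MS/MS.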
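For Tissue AUC0-8 h, Liver in this document: fasted 7-week-old rats, three per group, tissue sampled up to 8 h post-dose and urine collected over 0–24 h, with conjugates measured after alkaline hydrolysis, concentrations by LC-MS/MS.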
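For Tissue AUC0-8 h, Lung in this document: fasted 7-week-old rats, three per group, tissue sampled up to 8 h post-dose and urine collected over 0–24 h, with conjugates measured after alkaline hydrolysis, concentrations by LC-MS/MS.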

hERG K+ channel, sequence (Q12809 whole entry): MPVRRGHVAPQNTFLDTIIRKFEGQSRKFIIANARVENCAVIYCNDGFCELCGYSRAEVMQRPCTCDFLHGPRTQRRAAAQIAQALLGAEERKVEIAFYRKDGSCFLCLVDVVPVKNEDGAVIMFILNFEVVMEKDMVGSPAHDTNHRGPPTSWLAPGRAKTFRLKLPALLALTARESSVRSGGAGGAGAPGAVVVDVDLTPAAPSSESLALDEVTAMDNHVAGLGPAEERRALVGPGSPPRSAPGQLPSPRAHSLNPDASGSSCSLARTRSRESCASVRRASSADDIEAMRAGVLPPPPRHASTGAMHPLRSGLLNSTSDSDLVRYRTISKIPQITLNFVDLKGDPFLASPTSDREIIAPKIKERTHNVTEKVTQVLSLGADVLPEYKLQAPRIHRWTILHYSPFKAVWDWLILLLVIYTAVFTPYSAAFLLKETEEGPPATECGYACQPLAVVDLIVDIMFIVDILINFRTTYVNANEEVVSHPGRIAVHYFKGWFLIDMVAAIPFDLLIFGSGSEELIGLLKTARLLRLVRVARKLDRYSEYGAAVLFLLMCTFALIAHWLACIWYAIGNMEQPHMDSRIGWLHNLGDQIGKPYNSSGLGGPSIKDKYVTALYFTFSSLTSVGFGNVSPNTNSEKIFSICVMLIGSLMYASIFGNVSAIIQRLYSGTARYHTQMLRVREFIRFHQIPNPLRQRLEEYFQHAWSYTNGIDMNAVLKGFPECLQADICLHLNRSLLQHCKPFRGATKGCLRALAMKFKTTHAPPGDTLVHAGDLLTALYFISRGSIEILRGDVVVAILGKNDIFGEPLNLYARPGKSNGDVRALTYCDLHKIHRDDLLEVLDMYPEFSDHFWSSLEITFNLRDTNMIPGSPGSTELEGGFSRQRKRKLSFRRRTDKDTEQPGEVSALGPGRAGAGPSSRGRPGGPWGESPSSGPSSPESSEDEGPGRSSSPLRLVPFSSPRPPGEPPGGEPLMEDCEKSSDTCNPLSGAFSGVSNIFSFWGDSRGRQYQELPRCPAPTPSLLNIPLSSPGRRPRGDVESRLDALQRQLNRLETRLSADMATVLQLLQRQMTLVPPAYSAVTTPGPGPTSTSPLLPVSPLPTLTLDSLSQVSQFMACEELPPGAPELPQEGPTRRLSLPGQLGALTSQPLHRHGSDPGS

In the case of `COc1c(N2C[C@@H](N)C3(CC3)C2)c(F)cc2c(=O)c(C(=O)O)cn([C@@H]3C[C@@H]3F)c12` [Comparative compound 1], the “Recovery (%) in urine in relation to the amount administered, Recovery (%) including conjugate” value [1] is reported as 32.9%, the MIC (P. aeruginosa, 32121) is reported as 0.05 µg/mL (≈ 0.123 µM) and the “Recovery (%) in urine in relation to the amount administered, Recovery (%) including conjugate” value [2] is reported as 23.1%. The “Serum AUC0-8 h” value [2] was 1590 ng·h/mL, the “Tissue AUC0-8 h, Kidney” value [2] was 19300 ng·h/mL and the “Tissue AUC0-8 h, Liver” value [2] was 15000 ng·h/mL. For the same molecule, the “Tissue AUC0-8 h, Lung” value [2] was 6770 ng·h/mL, the “Tissue Cmax, Kidney” value [2] was 8.63 µg/g and the “Tissue Cmax, Liver” value [2] was 9.3 µg/g. The “Tissue Cmax, Lung” value [2] was 2.59 µg/g, the MIC (S. epidermidis, 56500) was 0.05 µg/mL (≈ 0.123 µM) and the MIC [3] was 0.025 µg/mL (≈ 0.0617 µM). It also gave an inhibition at 30 µM (hERG K+ channel) of 6.7 ± 8.3%, an inhibition at 100 µM (hERG K+ channel) of 13.5 ± 3.1% and an inhibition at 300 µM (hERG K+ channel) of 24.8 ± 16.5%. The MIC (E. coli NIHJ) was at most 0.003 µg/mL, the Cmax (in vivo [4]) was 820 ng/mL and the MIC (S. marscecens, 10100) was 0.05 µg/mL (≈ 0.123 µM). The MIC (E. faecalis, ATCC 19433) was 0.1 µg/mL (≈ 0.247 µM), the MIC ([5]; H37RV, strain H37Rv) was 0.06 µg/mL (≈ 0.148 µM) and the MIC ([5]; strain Kurono) was 0.06 µg/mL (≈ 0.148 µM). For the same molecule, the MIC ([5]; strain Ravenel) was 0.06 µg/mL (≈ 0.148 µM), the MIC ([5]; strain TB-s 2) was 0.125 µg/mL (≈ 0.308 µM) and the MIC ([5]; strain TB-s 3) was 0.125 µg/mL (≈ 0.308 µM). The MIC ([5]; strain TB-s 4) was 0.125 µg/mL (≈ 0.308 µM), the MIC ([5]; strain TB-s 5) was 0.06 µg/mL (≈ 0.148 µM) and the MIC ([5]; strain TB-s 6) was 0.125 µg/mL (≈ 0.308 µM). For the same molecule, the MIC ([5]; strain TB-s 7) was 0.25 µg/mL (≈ 0.617 µM), the MIC ([5]; strain TB-s 8) was 0.06 µg/mL (≈ 0.148 µM) and the MIC ([5]; strain TB-s 9) was 0.125 µg/mL (≈ 0.308 µM). For the same molecule, the MIC ([5]; strain TB-s 10) was 0.06 µg/mL (≈ 0.148 µM), the MIC ([5]; strain TB-s 11) was 0.125 µg/mL (≈ 0.308 µM) and the MIC ([5]; strain TB-s 12) was 0.25 µg/mL (≈ 0.617 µM). It also gave an MIC ([5]; strain TB-s 13) of 0.125 µg/mL (≈ 0.308 µM), an MIC ([5]; strain TB-s 14) of 0.125 µg/mL (≈ 0.308 µM) and an MIC ([5]; strain TB-s 15) of 0.125 µg/mL (≈ 0.308 µM). For the same molecule, the MIC ([5]; strain TB-s 16) was 0.125 µg/mL (≈ 0.308 µM), the MIC ([5]; strain TB-s 17) was 0.125 µg/mL (≈ 0.308 µM) and the MIC ([5]; strain TB-s 18) was 0.125 µg/mL (≈ 0.308 µM). The MIC ([5]; strain TB-s 19) was 0.125 µg/mL (≈ 0.308 µM), the MIC ([5]; strain TB-s 20) was 0.25 µg/mL (≈ 0.617 µM) and the MIC ([5]; strain TB-s 21) was 0.125 µg/mL (≈ 0.308 µM). It also gave an MIC ([5]; strain TB-s 22) of 0.06 µg/mL (≈ 0.148 µM), an AUC(0-t) (in vivo [6]) of 5110 ng·h/mL and a Cmax (in vivo [6]) of 840 ng/mL. It also gave a half-life (in vivo [6]) of 5 h, an MIC [7] of 0.39 µg/mL (≈ 0.962 µM) and an MIC ([8]; strain 1 (QR-3)) of 1 µg/mL (≈ 2.47 µM). The MIC ([8]; strain 2 (QR-6)) was 128 µg/mL (≈ 316 µM), the MIC ([8]; strain 3 (QR-1)) was 2 µg/mL (≈ 4.93 µM) and the MIC ([8]; strain 4 (QR-9)) was 32 µg/mL (≈ 78.9 µM). The MIC ([8]; strain MDR 1) was 0.5 µg/mL (≈ 1.23 µM), the MIC ([8]; strain MDR 3) was 0.5 µg/mL (≈ 1.23 µM) and the MIC ([8]; strain MDR 4) was 0.5 µg/mL (≈ 1.23 µM). It also gave an MIC ([8]; strain MDR 5) of 1 µg/mL (≈ 2.47 µM), an MIC ([8]; strain MDR 7) of 0.5 µg/mL (≈ 1.23 µM) and an MIC ([8]; strain MDR 9) of 0.5 µg/mL (≈ 1.23 µM). For the same molecule, the MIC ([8]; strain MDR 12) was 0.5 µg/mL (≈ 1.23 µM), the MIC ([8]; strain S 1) was 2 µg/mL (≈ 4.93 µM) and the MIC (P. vulgaris, 08601) was 0.012 µg/mL (≈ 0.0296 µM). The MIC (P. aeruginosa, 32104) was 0.1 µg/mL (≈ 0.247 µM), the MIC (S. aureus, 209P) was 0.006 µg/mL (≈ 0.0148 µM) and the “Evaluation in GPMT” value [9] was “Positive”. The “Average score in GPMT” value ([9]; male, Slc:Hertley) was 6.8.

From patent publication US7563805B2, “Tri-, tetra-substituted-3-aminopyrrolidine derivative” (Daiichi Pharmaceutical Co., Ltd., priority 2005, dated 2009)
